The text below walks through data of article PMC8319832, “Fine-Tuning of Alkaline Residues on the Hydrophilic Face Provides a Non-toxic Cationic α-Helical Antimicrobial Peptide Against Antibiotic-Resistant ESKAPE Pathogens” (Frontiers in Microbiology, 2021).

In brackets after ≈: the same amount, converted by molar mass. Where a SMILES comes first, the peptide text is derived from it.

The test system of data set [1] is S. aureus ATCC29213. Description: MIC, broth dilution. It counts as cell-based, Staphylococcus aureus. The conditions noted are these: CLSI broth dilution, MHB, 6.25 × 10^5 cfu per ml, 37°C, 20 h, OD630, at least three repeats. As to the method: All experiments were repeated at least three times.
To study the influence of physiological ions on the antimicrobial activities of the peptides, The MICs of the peptides were also determined against the standard bacterial strains cultured in MHB containing various salts at their physiological concentrations (150 mM NaCl, 4.5 mM KCl, 1 mM MgCl2, 2 mM CaCl2, 6 μM NH4HCO3, and 4 μM FeCl3) ([Ma et al., 2016]).
Background: In broth dilution the organism is exposed to a series of concentrations in liquid medium.

The subject of data set [2] is E. coli ATCC25922. Description: MIC, broth dilution. It counts as cell-based, Escherichia coli. The following applies: CLSI broth dilution, MHB, 6.25 × 10^5 cfu per ml, 37°C, 20 h, OD630, at least three repeats.
The subject of data set [3] is human red blood cells (hRBCs). Description: Hemolytic activity determination. It counts as cell-based. The conditions noted are these: hRBCs in 0.9% sodium chloride, 37°C, 1 h, OD540, 1% Triton X-100 = 100%, three independent experiments. As to the method:
Fresh human red blood cells (hRBCs) were collected in a sterile borosilicate glass tube covered with sodium citrate as the anticoagulating agent. […] Two-fold dilutions of the peptides were prepared in 0.9% sodium chloride to 100 μl and mixed with equal volumn of hRBC suspension to final peptide concentrations ranging from 12.5 to 200 μg ml^–1. After co-incubation at 37°C for 1 h, the samples were centrifuged (2,000 × g, 4°C, 20 min), and the supernatant (100 μl) was taken for optical density (OD540) measurements (Asample). The hRBCs assayed with 0.9% sodium chloride (Ablank) or 1% Triton X-100 (Apositive) were applied as 0% and 100% hemolysis, respectively. Three independent experiments were performed and the percent hemolysis was calculated according to the following equation ([Yin et al., 2012]; [Li et al., 2016]):
Hemolysis(%)=100*(Asample-Ablank)/(Apositive-Ablank)

For the compound `CC[C@H](C)[C@H](NC(=O)[C@H](CCCNC(=N)N)NC(=O)CNC(=O)[C@@H](NC(=O)[C@@H](N)Cc1ccccc1)[C@@H](C)CC)C(=O)N[C@@H](C)C(=O)N[C@@H](CCCNC(=N)N)C(=O)N[C@@H](CC(C)C)C(=O)N[C@@H](CC(C)C)C(=O)N[C@@H](CO)C(=O)N[C@@H](CCCCN)C(=O)N[C@H](C(=O)N[C@@H](Cc1ccccc1)C(N)=O)[C@@H](C)CC` [Kn2(A4R)] (H-FIGRIARLLSKIF-NH2), the figures for the MIC in data set [1] and in data set [2] were 5 µg/mL (≈ 3.26 µM) and 10 µg/mL (≈ 6.52 µM), respectively. In data set [3] (peptide 25 μg ml^–1), the “percent hRBC hemolysis” value is given as 100%.
Take `CC[C@H](C)[C@H](NC(=O)[C@H](CCCNC(=N)N)NC(=O)CNC(=O)[C@@H](NC(=O)[C@@H](N)Cc1ccccc1)[C@@H](C)CC)C(=O)N[C@@H](C)C(=O)N[C@@H](CCCNC(=N)N)C(=O)N[C@@H](CC(C)C)C(=O)N[C@@H](CC(C)C)C(=O)N[C@@H](CCCNC(=N)N)C(=O)N[C@@H](CCCCN)C(=O)N[C@H](C(=O)N[C@@H](Cc1ccccc1)C(N)=O)[C@@H](C)CC` [Kn2(A4R_S10R)] (H-FIGRIARLLRKIF-NH2): the MIC in data set [1] was found to be 10 µg/mL (≈ 6.24 µM); in data set [2], 20 µg/mL (≈ 12.5 µM). Also, in data set [3] (peptide 25 μg ml^–1), the “percent hRBC hemolysis” value is listed as 18.0%.
With `CC[C@H](C)[C@H](NC(=O)[C@H](CCCCN)NC(=O)[C@H](CCCCN)NC(=O)[C@@H](NC(=O)[C@@H](N)Cc1ccccc1)[C@@H](C)CC)C(=O)N[C@@H](C)C(=O)N[C@@H](CCCNC(=N)N)C(=O)N[C@@H](CC(C)C)C(=O)N[C@@H](CC(C)C)C(=O)N[C@@H](CCCNC(=N)N)C(=O)N[C@@H](CCCCN)C(=O)N[C@H](C(=O)N[C@@H](Cc1ccccc1)C(N)=O)[C@@H](C)CC` [Kn2-7(R4K)] (H-FIKKIARLLRKIF-NH2), the MIC in data set [1] and in data set [2] was 5 µg/mL (≈ 3.04 µM) throughout.
Take `CC[C@H](C)[C@H](NC(=O)[C@H](CCCNC(=N)N)NC(=O)[C@H](CCCCN)NC(=O)[C@@H](NC(=O)[C@@H](N)Cc1ccccc1)[C@@H](C)CC)C(=O)N[C@@H](C)C(=O)N[C@@H](CCCCN)C(=O)N[C@@H](CC(C)C)C(=O)N[C@@H](CC(C)C)C(=O)N[C@@H](CCCCN)C(=O)N[C@@H](CCCCN)C(=O)N[C@H](C(=O)N[C@@H](Cc1ccccc1)C(N)=O)[C@@H](C)CC` [Kn2-7(R7K_R10K)] (H-FIKRIAKLLKKIF-NH2): the MIC in data set [1] was 5 µg/mL (≈ 3.09 µM); in data set [2], 20 µg/mL (≈ 12.4 µM).
For the compound `CC[C@H](C)[C@H](NC(=O)[C@H](CCCNC(=N)N)NC(=O)[C@H](CCCCN)NC(=O)[C@@H](NC(=O)[C@@H](N)Cc1ccccc1)[C@@H](C)CC)C(=O)N[C@@H](C)C(=O)N[C@@H](CCCCN)C(=O)N[C@@H](CC(C)C)C(=O)N[C@@H](CC(C)C)C(=O)N[C@@H](CCCNC(=N)N)C(=O)N[C@@H](CCCCN)C(=O)N[C@H](C(=O)N[C@@H](Cc1ccccc1)C(N)=O)[C@@H](C)CC` [Kn2-7(R7K)] (H-FIKRIAKLLRKIF-NH2), the MIC in data set [1] is 5 µg/mL (≈ 3.04 µM); in data set [2], 20 µg/mL (≈ 12.2 µM).
For the compound `CC[C@H](C)[C@H](NC(=O)[C@H](CCCCN)NC(=O)[C@H](CCCCN)NC(=O)[C@@H](NC(=O)[C@@H](N)Cc1ccccc1)[C@@H](C)CC)C(=O)N[C@@H](C)C(=O)N[C@@H](CCCNC(=N)N)C(=O)N[C@@H](CC(C)C)C(=O)N[C@@H](CC(C)C)C(=O)N[C@@H](CCCCN)C(=O)N[C@@H](CCCCN)C(=O)N[C@H](C(=O)N[C@@H](Cc1ccccc1)C(N)=O)[C@@H](C)CC` [Kn2-7(R4K_R10K)] (H-FIKKIARLLKKIF-NH2), the MIC in data set [1] turned out to be 2.5 µg/mL (≈ 1.55 µM); in data set [2], 5 µg/mL (≈ 3.09 µM).
Turning to `CC[C@H](C)[C@H](NC(=O)[C@H](C)NC(=O)[C@H](CCCCN)NC(=O)[C@@H](NC(=O)[C@@H](N)Cc1ccccc1)[C@@H](C)CC)C(=O)N[C@@H](C)C(=O)N[C@@H](CCCNC(=N)N)C(=O)N[C@@H](CC(C)C)C(=O)N[C@@H](CC(C)C)C(=O)N[C@@H](CCCNC(=N)N)C(=O)N[C@@H](CCCCN)C(=O)N[C@H](C(=O)N[C@@H](Cc1ccccc1)C(N)=O)[C@@H](C)CC` [Kn2(G3K_S10R)] (H-FIKAIARLLRKIF-NH2), the results for the MIC in data set [1] and in data set [2] were 10 µg/mL (≈ 6.3 µM) and 20 µg/mL (≈ 12.6 µM), respectively. Also, the “percent hRBC hemolysis” value in data set [3] (peptide 25 μg ml^–1) is reported as 77.5%.
With `CC[C@H](C)[C@H](NC(=O)[C@H](CCCNC(=N)N)NC(=O)[C@H](CCCNC(=N)N)NC(=O)[C@@H](NC(=O)[C@@H](N)Cc1ccccc1)[C@@H](C)CC)C(=O)N[C@@H](C)C(=O)N[C@@H](CCCNC(=N)N)C(=O)N[C@@H](CC(C)C)C(=O)N[C@@H](CC(C)C)C(=O)N[C@@H](CCCNC(=N)N)C(=O)N[C@@H](CCCCN)C(=O)N[C@H](C(=O)N[C@@H](Cc1ccccc1)C(N)=O)[C@@H](C)CC` [Kn2-7(K3R)] (H-FIRRIARLLRKIF-NH2), the results for the MIC in data set [1] and in data set [2] were 5 µg/mL (≈ 2.94 µM) and 20 µg/mL (≈ 11.8 µM), respectively. Moreover, in data set [3] (peptide 100 μg ml^–1), the “percent hRBC hemolysis” value is given as 89.3%.
For the compound `CC[C@H](C)[C@H](NC(=O)[C@H](CCCNC(=N)N)NC(=O)[C@H](CCCCN)NC(=O)[C@@H](NC(=O)[C@@H](N)Cc1ccccc1)[C@@H](C)CC)C(=O)N[C@@H](C)C(=O)N[C@@H](CCCNC(=N)N)C(=O)N[C@@H](CC(C)C)C(=O)N[C@@H](CC(C)C)C(=O)N[C@@H](CO)C(=O)N[C@@H](CCCCN)C(=O)N[C@H](C(=O)N[C@@H](Cc1ccccc1)C(N)=O)[C@@H](C)CC` [Kn2(G3K_A4R)] (H-FIKRIARLLSKIF-NH2), the MIC in data set [1] was found to be 5 µg/mL (≈ 3.12 µM); in data set [2], 10 µg/mL (≈ 6.23 µM). The “percent hRBC hemolysis” value in data set [3] (peptide 25 μg ml^–1) came out at 8.3%.
As to `CC[C@H](C)[C@H](NC(=O)[C@H](CCCCN)NC(=O)[C@H](CCCCN)NC(=O)[C@@H](NC(=O)[C@@H](N)Cc1ccccc1)[C@@H](C)CC)C(=O)N[C@@H](C)C(=O)N[C@@H](CCCCN)C(=O)N[C@@H](CC(C)C)C(=O)N[C@@H](CC(C)C)C(=O)N[C@@H](CCCNC(=N)N)C(=O)N[C@@H](CCCCN)C(=O)N[C@H](C(=O)N[C@@H](Cc1ccccc1)C(N)=O)[C@@H](C)CC` [Kn2-7(R4K_R7K)] (H-FIKKIAKLLRKIF-NH2), the MIC in data set [1] stood at 5 µg/mL (≈ 3.09 µM); in data set [2], 10 µg/mL (≈ 6.18 µM).
Regarding `CC[C@H](C)[C@H](NC(=O)[C@H](CCCNC(=N)N)NC(=O)[C@H](CCCCN)NC(=O)[C@@H](NC(=O)[C@@H](N)Cc1ccccc1)[C@@H](C)CC)C(=O)N[C@@H](C)C(=O)N[C@@H](CCCNC(=N)N)C(=O)N[C@@H](CC(C)C)C(=O)N[C@@H](CC(C)C)C(=O)N[C@@H](CCCNC(=N)N)C(=O)N[C@@H](CCCNC(=N)N)C(=O)N[C@H](C(=O)N[C@@H](Cc1ccccc1)C(N)=O)[C@@H](C)CC` [Kn2-7(K11R)] (H-FIKRIARLLRRIF-NH2), the MIC in data set [1] was 5 µg/mL (≈ 2.94 µM); in data set [2], 10 µg/mL (≈ 5.88 µM).
Regarding `CC[C@H](C)[C@H](NC(=O)[C@H](C)NC(=O)CNC(=O)[C@@H](NC(=O)[C@@H](N)Cc1ccccc1)[C@@H](C)CC)C(=O)N[C@@H](C)C(=O)N[C@@H](CCCNC(=N)N)C(=O)N[C@@H](CC(C)C)C(=O)N[C@@H](CC(C)C)C(=O)N[C@@H](CCCNC(=N)N)C(=O)N[C@@H](CCCCN)C(=O)N[C@H](C(=O)N[C@@H](Cc1ccccc1)C(N)=O)[C@@H](C)CC` [Kn2(S10R)] (H-FIGAIARLLRKIF-NH2), the MIC turned out to be 10 µg/mL (≈ 6.59 µM) in data set [1] and 20 µg/mL (≈ 13.2 µM) in data set [2]. Also, in data set [3] (peptide 25 μg ml^–1), the “percent hRBC hemolysis” value was found to be 50.9%.
Take `CC[C@H](C)[C@H](NC(=O)[C@H](CCCNC(=N)N)NC(=O)[C@H](CCCCN)NC(=O)[C@@H](NC(=O)[C@@H](N)Cc1ccccc1)[C@@H](C)CC)C(=O)N[C@@H](C)C(=O)N[C@@H](CCCNC(=N)N)C(=O)N[C@@H](CC(C)C)C(=O)N[C@@H](CC(C)C)C(=O)N[C@@H](CCCCN)C(=O)N[C@@H](CCCCN)C(=O)N[C@H](C(=O)N[C@@H](Cc1ccccc1)C(N)=O)[C@@H](C)CC` [Kn2-7(R10K)] (H-FIKRIARLLKKIF-NH2): the MIC in data set [1] and in data set [2] was 5 µg/mL (≈ 3.04 µM) in each case.
As to `CC[C@H](C)[C@H](NC(=O)[C@H](C)NC(=O)[C@H](CCCCN)NC(=O)[C@@H](NC(=O)[C@@H](N)Cc1ccccc1)[C@@H](C)CC)C(=O)N[C@@H](C)C(=O)N[C@@H](CCCNC(=N)N)C(=O)N[C@@H](CC(C)C)C(=O)N[C@@H](CC(C)C)C(=O)N[C@@H](CO)C(=O)N[C@@H](CCCCN)C(=O)N[C@H](C(=O)N[C@@H](Cc1ccccc1)C(N)=O)[C@@H](C)CC` [Kn2(G3K)] (H-FIKAIARLLSKIF-NH2), the MIC in data set [1] came out at 5 µg/mL (≈ 3.29 µM); in data set [2] it was 40 µg/mL (≈ 26.3 µM). For the same compound, in data set [3] (peptide 25 μg ml^–1), the “percent hRBC hemolysis” value worked out at 69.0%.

By MIC is commonly meant the least concentration at which growth counts as inhibited. Higher therefore signals a less susceptible organism.
